Results on 18 molecules are retold here after ChEMBL document CHEMBL2401683, “Discovery of novel andrographolide derivatives as cytotoxic agents” (2013).

One may read the GI50 as the concentration that inhibits growth by half.

Experiment [1] in a line: Growth inhibition of human KBVIN cells after 72 hrs by SRB assay. It is filed as functional. In general terms: Sulforhodamine B stains cellular protein and so reports cell mass.
The subject of a further experiment is KB. Briefly: Growth inhibition of human KB cells after 72 hrs by SRB assay. It is filed as functional.
The subject of another experiment is A549. Briefly: Growth inhibition of human A549 cells after 72 hrs by SRB assay. It is filed as functional. The settings on record: A549, 72 h.
The test system of a further experiment is DU-145. Description: Growth inhibition of human DU145 cells after 72 hrs by SRB assay. It is filed as functional. To be noted: DU-145, 72 h.
In experiment [2] the test system is PC-3. Briefly: Disruption of microtubule dynamics in human PC3 cells at 30 to 60 uM after 24 hrs by DAPI staining-based confocal microscopic analysis. It is filed as functional, cell-based.
The subject of experiment [3] is PC-3. Description: Induction of metaphase cell accumulation in human PC3 cells at 30 to 60 uM after 24 hrs by DAPI staining-based confocal microscopic analysis. It is filed as functional.

Calls of active or inactive are those of the source. No cut-off for these calls is given here. Where only a bound is given, the exact number is not on record here.

Take `C=C1CC[C@@H]2[C@](C)(COC(=O)CCCCC3CCSS3)[C@H](OC(=O)CCCCC3CCSS3)CC[C@@]2(C)[C@@H]1/C=C/C1=CCOC1=O` (stereo not given in full): the GI50 in experiment [1] stood at 12.9 µM; with KB it was 11.7 µM; with A549, 10.2 µM; with DU-145, 11.8 µM.

On to `C=C1CC[C@@H]2[C@](C)(COC(=O)c3cnccn3)[C@H](OC(=O)c3cnccn3)CC[C@@]2(C)[C@@H]1/C=C/C1=CCOC1=O`, for which the GI50 in experiment [1] amounted to 9.19 µM; in the experiment with KB it was 8.24 µM; with A549, 4.87 µM; with DU-145 it was 8.63 µM.

Take `C=C1CC[C@@H]2[C@](C)(COC(=O)CCN3CCOCC3)[C@H](O)CC[C@@]2(C)[C@@H]1/C=C/C1=CCOC1=O`: the GI50 was 30 µM in experiment [1], more than 30 µM with KB, more than 30 µM in the experiment with A549 and 30.3 µM in the experiment on DU-145.

In the case of `C=C1CC[C@@H]2[C@](C)(COC(=O)CCCCC3CCSS3)[C@H](O)CC[C@@]2(C)[C@@H]1/C=C/C1=CCOC1=O` (stereo not given in full), the GI50 (in experiment [1]; in the experiment with KB; with A549; with DU-145) was more than 30 µM in each case.

Consider `C=C1CC[C@@H]2[C@](C)(COC(=O)CCN(C)C)[C@H](OC(=O)CCN(C)C)CC[C@@]2(C)[C@@H]1/C=C/C1=CCOC1=O`, for which the 50% growth inhibitory concentration (GI50) in experiment [1] was 31.7 µM; in the experiment with KB it was more than 30 µM; in the experiment with A549, 32 µM; with DU-145, 25.3 µM.

Regarding `C=C1CC[C@@H]2[C@](C)(COC(=O)C3CCN(C)CC3)[C@H](OC(=O)C3CCN(C)CC3)CC[C@@]2(C)[C@@H]1/C=C/C1=CCOC1=O`, the concentration for 50% growth inhibition (GI50) in experiment [1] stood at 3 µM; in the experiment with KB it was 2.55 µM; with A549 it was 1.46 µM; in the experiment on DU-145, 2.27 µM. The outcome in the experiment with PC-3 [2] was Active. Moreover, in the experiment on PC-3 [3], the result was inactive.

Consider `C=C1CC[C@@H]2[C@](C)(COC(=O)C3CCCN3C(=O)OC(C)(C)C)[C@H](O)CC[C@@]2(C)[C@@H]1/C=C/C1=CCOC1=O` (stereo not given in full), for which the GI50 in experiment [1] turned out to be 17.9 µM; in the experiment on KB, 20.1 µM; with A549 it was 18.8 µM; in the experiment on DU-145, 18.8 µM.

`C=C1CC[C@@H]2[C@](C)(COC(=O)c3cccnc3)[C@H](OC(=O)c3cccnc3)CC[C@@]2(C)[C@@H]1/C=C/C1=CCOC1=O`: the GI50 (in experiment [1]; in the experiment with KB; in the experiment with A549; with DU-145) was more than 30 µM in each case.

Regarding `C=C1CC[C@@H]2[C@](C)(CO)[C@H](O)CC[C@@]2(C)[C@@H]1C/C=C1/C(=O)OC[C@H]1O` [ANDROGRAPHOLIDE], the GI50 in experiment [1] came to 13.8 µM; in the experiment with KB, 13.2 µM; in the experiment on A549 it was 13.4 µM; in the experiment on DU-145, 16 µM. In addition, in the experiment with PC-3 [3], the result was Active.

For the molecule `C=C1CC[C@@H]2[C@](C)(COC(=O)CCN3CCOCC3)[C@H](OC(=O)CCN3CCOCC3)CC[C@@]2(C)[C@@H]1/C=C/C1=CCOC1=O`, the GI50 (in experiment [1]; in the experiment with KB; with A549; in the experiment with DU-145) was more than 30 µM throughout.

As to `C=C1CC[C@@H]2[C@]3(C)CO[C@@H](c4ccc([N+](=O)[O-])cc4)O[C@@H]3CC[C@@]2(C)[C@@H]1/C=C/C1=CCOC1=O`, the GI50 in experiment [1] was more than 30 µM; with KB, more than 30 µM; in the experiment with A549, 30.8 µM; in the experiment on DU-145 it was more than 30 µM.

Turning to `C=C1CC[C@@H]2[C@]3(C)CO[C@@H](c4ccc(C(F)(F)F)cc4)O[C@@H]3CC[C@@]2(C)[C@@H]1/C=C/C1=CCOC1=O`, the GI50 came to 18.3 µM in experiment [1], 23.4 µM in the experiment on KB, 16.9 µM with A549 and 17.2 µM in the experiment with DU-145.

In the case of `C=C1CC[C@@H]2[C@](C)(COC(=O)C3CCCN3C(=O)OC(C)(C)C)[C@H](OC(=O)C3CCCN3C(=O)OC(C)(C)C)CC[C@@]2(C)[C@@H]1/C=C/C1=CCOC1=O` (stereo not given in full), the GI50 is 11.1 µM in experiment [1], 12.5 µM in the experiment with KB, 10.2 µM with A549 and 11.1 µM in the experiment on DU-145.

For `C=C1CC[C@@H]2[C@]3(C)CO[C@@H](c4ccc(OC)cc4)O[C@@H]3CC[C@@]2(C)[C@@H]1/C=C/C1=CCOC1=O`, the GI50 is more than 30 µM in experiment [1], 32.9 µM with KB, 26.9 µM in the experiment with A549 and 32.1 µM with DU-145.

For `C=C1CC[C@@H]2[C@](C)(COC(=O)CN(C)C)[C@H](OC(=O)CN(C)C)CC[C@@]2(C)[C@@H]1/C=C/C1=CCOC1=O`, the concentration for 50% growth inhibition (GI50) (in experiment [1]; in the experiment with KB; in the experiment on A549; in the experiment on DU-145) was more than 30 µM in each case.

`C=C1CC[C@@H]2[C@]3(C)CO[C@@H](c4ccco4)O[C@@H]3CC[C@@]2(C)[C@@H]1/C=C/C1=CCOC1=O`: the GI50 in experiment [1] was determined as 32.7 µM; in the experiment on KB it was 36.4 µM; with A549, 34 µM; with DU-145, 32.9 µM.

For the molecule `C=C1CC[C@@H]2[C@]3(C)CO[C@@H](c4ccc(O)cc4)O[C@@H]3CC[C@@]2(C)[C@@H]1/C=C/C1=CCOC1=O`, the GI50 was 22.6 µM in experiment [1], 23.7 µM in the experiment on KB, 22.8 µM in the experiment with A549 and 19.1 µM in the experiment on DU-145.

As for `C=C1CC[C@@H]2[C@]3(C)CO[C@@H](c4ccc(N(C)C)cc4)O[C@@H]3CC[C@@]2(C)[C@@H]1/C=C/C1=CCOC1=O`, the concentration for 50% growth inhibition (GI50) in experiment [1] was more than 30 µM; with KB, more than 30 µM; in the experiment with A549 it was 33 µM; with DU-145, more than 30 µM.
